Test results reported in ChEMBL document CHEMBL1142029, “Design, synthesis, and biological activity of novel PPARgamma ligands based on rosiglitazone and 15d-PGJ2” (Bioorg Med Chem Lett, 2005).
Calls of active or inactive are those of the source. The rule behind the calls is not given here.

Experiments:
[1] = molecular target: T1, Peroxisome proliferator-activated receptor gamma (Homo sapiens) (UniProt P37231); assay: Binding affinity for peroxisome proliferator-activated receptor gamma: active
T1 sequence (whole entry): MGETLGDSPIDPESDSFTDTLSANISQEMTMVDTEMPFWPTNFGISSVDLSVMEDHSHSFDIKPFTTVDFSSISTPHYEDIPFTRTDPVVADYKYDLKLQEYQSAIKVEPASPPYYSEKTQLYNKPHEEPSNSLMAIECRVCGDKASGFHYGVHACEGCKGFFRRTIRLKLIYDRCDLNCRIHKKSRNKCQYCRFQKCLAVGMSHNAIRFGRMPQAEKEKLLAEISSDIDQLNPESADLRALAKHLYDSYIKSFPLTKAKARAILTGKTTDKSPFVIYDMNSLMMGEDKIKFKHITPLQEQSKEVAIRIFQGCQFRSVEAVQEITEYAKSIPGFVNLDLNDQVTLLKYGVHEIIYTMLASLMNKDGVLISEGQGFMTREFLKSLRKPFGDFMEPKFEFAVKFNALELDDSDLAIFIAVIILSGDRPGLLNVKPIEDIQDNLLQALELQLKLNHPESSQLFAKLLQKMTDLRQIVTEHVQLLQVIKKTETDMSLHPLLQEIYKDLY

[2] = molecular target: T1, Peroxisome proliferator-activated receptor gamma (Homo sapiens); assay: Binding affinity for peroxisome proliferator-activated receptor gamma: weak activity
[3] = molecular target: T1, Peroxisome proliferator-activated receptor gamma (Homo sapiens); assay: Binding affinity for peroxisome proliferator-activated receptor gamma: more active

| SMILES | Activity [1] | other results |
| --- | --- | --- |
| CN(CCOc1ccc(CCC(=O)O)cc1)c1ccccn1 | Active | – |
| O=C(O)CCc1ccc(OCCn2c3ccccc3c3ccncc32)cc1 | – | Activity [2]: Weak activity |
| O=C(O)CCc1ccc(OCCN(c2ccccc2)c2ccccn2)cc1 | – | Activity [2]: Weak activity |
| O=C(O)CCc1ccc(OCCN(c2ccccn2)c2ccccn2)cc1 | – | Activity [2]: Weak activity |
| CCCN(CCOc1ccc(CCC(=O)O)cc1)c1ccccn1 | Active | – |
| CCCCCCN(CCOc1ccc(CCC(=O)O)cc1)c1ccccn1 | Active | – |
| CCCCCCCCCCN(CCOc1ccc(CCC(=O)O)cc1)c1ccccn1 | Active | – |
| CCN(CCOc1ccc(CCC(=O)O)cc1)c1ccccn1 | Active | – |
| CCCCN(CCOc1ccc(CCC(=O)O)cc1)c1ccccn1 | Active | – |
| CCCCCCCN(CCOc1ccc(CCC(=O)O)cc1)c1ccccn1 | – | Activity [3]: Active |
| CCCCCN(CCOc1ccc(CCC(=O)O)cc1)c1ccccn1 | Active | – |
| CCCCCCCCN(CCOc1ccc(CCC(=O)O)cc1)c1ccccn1 | – | Activity [3]: Active |
